# From US20080227797A1, “Pyridopyrimidine Derivatives as Pde4 Inhibitors for the Treatment of Inflammatory and Immune Diseases” (ASTRAZENECA AB, priority 2005, published 2008)
# Target: recombinant Human Phosphodiesterase B2 (PDE4B2) (Homo sapiens, UniProt Q07343)
# Assay: Human Phosphodiesterase B2 Alpha Screen Assay
# Type: biochemical
# Details: cAMP substrate, Alpha Screen cAMP kit, 60 minutes at room temperature
# Summary of the method: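 Recombinant human PDE4B2 preincubated 15 min at RT with compound in 50 mM Tris pH 7.5, 8.3 mM MgCl2, 1.7 mM EGTA, 0.01% Brij35, then reacted with cAMP for 60 min at RT. Stopped with EDTA; AlphaScreen beads with biotinylated cAMP incubated 5 h in the dark before reading. IC50 from curve fitting.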
# Chain of recombinant Human Phosphodiesterase B2 (PDE4B2) (Q07343 1-564 isoform Q07343-2): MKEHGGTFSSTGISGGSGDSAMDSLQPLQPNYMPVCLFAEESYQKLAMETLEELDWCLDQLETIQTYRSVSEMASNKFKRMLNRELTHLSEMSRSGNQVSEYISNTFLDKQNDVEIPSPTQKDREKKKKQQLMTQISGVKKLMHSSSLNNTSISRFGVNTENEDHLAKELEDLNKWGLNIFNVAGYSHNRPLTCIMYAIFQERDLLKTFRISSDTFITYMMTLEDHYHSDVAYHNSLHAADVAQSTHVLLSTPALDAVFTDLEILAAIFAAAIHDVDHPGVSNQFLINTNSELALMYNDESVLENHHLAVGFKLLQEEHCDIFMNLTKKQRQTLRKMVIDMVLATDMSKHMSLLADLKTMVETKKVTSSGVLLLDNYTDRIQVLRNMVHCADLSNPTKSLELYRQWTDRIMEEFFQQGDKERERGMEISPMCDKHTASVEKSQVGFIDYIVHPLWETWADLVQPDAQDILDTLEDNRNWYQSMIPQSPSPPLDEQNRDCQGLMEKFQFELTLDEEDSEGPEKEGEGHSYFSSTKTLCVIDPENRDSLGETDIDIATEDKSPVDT
row,SMILES,IC50 [nM]
1,"COc1ccc(C(=O)N[C@H]2CC[C@@H](n3c(=O)c4cc(F)cnc4n(-c4ccc(F)c(F)c4)c3=O)CC2)c(O)c1 [Example 19, N-{cis-4-[1-(3,4-difluorophenyl)-6-fluoro-2,4-dioxo-1,4-dihydropyrido[2,3-d]pyrimidin-3(2H)-yl]cyclohexyl}-2-hydroxy-4-methoxybenzamide]",2
2,"COC(=O)c1cccc(-n2c(=O)n([C@H]3CC[C@@H](NC(=O)c4cc5ccccn5n4)CC3)c(=O)c3cc(F)cnc32)c1 [Example 68, methyl 3-[6-fluoro-2,4-dioxo-3-{cis-4-[(pyrazolo[1,5-a]pyridin-2-ylcarbonyl)amino]cyclohexyl}-3,4-dihydropyrido[2,3-d]pyrimidin-1(2H)-yl]benzoate]",0.6
3,"COC(=O)c1cccc(-n2c(=O)n([C@H]3CC[C@@H](NC(=O)C4CC4)CC3)c(=O)c3cc(F)cnc32)c1 [Example 70, methyl 3-[3-{cis-4-[(cyclopropylcarbonyl)amino]cyclohexyl}-6-fluoro-2,4-dioxo-3,4-dihydropyrido[2,3-d]pyrimidin-1(2H)-yl]benzoate]",6.6
4,"CS(=O)(=O)c1cccc(-n2c(=O)n([C@H]3CC[C@@H](NC(=O)c4cc(Cl)ccc4O)CC3)c(=O)c3cc(F)cnc32)c1 [Example 40, 5-chloro-N-{cis-4-[6-fluoro-1-[3-(methylsulfonyl)phenyl]-2,4-dioxo-1,4-dihydropyrido[2,3-d]pyrimidin-3(2H)-yl]cyclohexyl}-2-hydroxybenzamide]",90.6
5,"O=C(N[C@H]1CC[C@@H](n2c(=O)c3cc(F)cnc3n(-c3ccc(F)c(F)c3)c2=O)CC1)c1cc(F)ccc1O [Example 20, N-{cis-4-[1-(3,4-difluorophenyl)-6-fluoro-2,4-dioxo-1,4-dihydropyrido[2,3-d]pyrimidin-3(2H)-yl]cyclohexyl}-5-fluoro-2-hydroxybenzamide]",3.6
6,"COC(=O)c1ccc(C(=O)N[C@H]2CC[C@@H](n3c(=O)c4cc(F)cnc4n(-c4ccc(F)c(F)c4)c3=O)CC2)cn1 [Example 50, methyl 5-[({cis-4-[1-(3,4-difluorophenyl)-6-fluoro-2,4-dioxo-1,4-dihydropyrido[2,3-d]pyrimidin-3(2H)-yl]cyclohexyl}amino)carbonyl]pyridine-2-carboxylate]",2.1
7,"CSc1cccc(-n2c(=O)n([C@H]3CC[C@@H](NC(=O)CO)CC3)c(=O)c3cc(F)cnc32)c1 [Example 39, N-{cis-4-[6-fluoro-1-[3-(methylthio)phenyl]-2,4-dioxo-1,4-dihydropyrido[2,3-d]pyrimidin-3(2H)-yl]cyclohexyl}-2-hydroxyacetamide]",23.7
8,"O=C(N[C@H]1CC[C@@H](n2c(=O)c3cc(F)cnc3n(-c3ccc(F)c(F)c3)c2=O)CC1)c1ccc(O)cc1 [Example 6, N-{cis-4-[1-(3,4-difluorophenyl)-6-fluoro-2,4-dioxo-1,4-dihydropyrido[2,3-d]pyrimidin-3(2H)-yl]cyclohexyl}-4-hydroxybenzamide]",2.3
9,"O=C(N[C@H]1CC[C@@H](n2c(=O)c3cc(F)cnc3n(-c3ccc(F)c(F)c3)c2=O)CC1)c1n[nH]c2ccccc12 [Example 32, N-{cis-4-[1-(3,4-difluorophenyl)-6-fluoro-2,4-dioxo-1,4-dihydropyrido[2,3-d]pyrimidin-3(2H)-yl]cyclohexyl}-1H-indazole-3-carboxamide]",0.6
10,"O=C(N[C@H]1CC[C@@H](n2c(=O)c3cc(F)cnc3n(-c3ccc(F)c(F)c3)c2=O)CC1)[C@H](O)C1CCCCC1 [Example 22, (2R)-2-cyclohexyl-N-{cis-4-[1-(3,4-difluorophenyl)-6-fluoro-2,4-dioxo-1,4-dihydropyrido[2,3-d]pyrimidin-3(2H)-yl]cyclohexyl}-2-hydroxyacetamide]",1
11,"O=C(N[C@H]1CC[C@@H](n2c(=O)c3cc(F)cnc3n(-c3ccc(F)c(F)c3)c2=O)CC1)c1ccc2[nH]ccc2c1 [Example 85, N-{cis-4-[1-(3,4-difluorophenyl)-6-fluoro-2,4-dioxo-1,4-dihydropyrido[2,3-d]pyrimidin-3(2H)-yl]cyclohexyl}-1H-indole-5-carboxamide]",0.996
12,"O=C(N[C@H]1CC[C@@H](n2c(=O)c3cc(F)cnc3n(-c3ccc(F)c(F)c3)c2=O)CC1)c1ccsc1 [Example 95, N-{cis-4-[1-(3,4-difluorophenyl)-6-fluoro-2,4-dioxo-1,4-dihydropyrido[2,3-d]pyrimidin-3(2H)-yl]cyclohexyl}thiophene-3-carboxamide]",3.39
13,"COC(=O)c1cccc(-n2c(=O)n([C@H]3CC[C@@H](NC(=O)c4ccc(CN(C)C)o4)CC3)c(=O)c3cc(F)cnc32)c1 [Example 74, methyl 3-[3-[cis-4-({5-[(dimethylamino)methyl]-2-furoyl}amino)cyclohexyl]-6-fluoro-2,4-dioxo-3,4-dihydropyrido[2,3-d]pyrimidin-1(2H)-yl]benzoate]",5.1
14,"COC(=O)c1cccc(-n2c(=O)n([C@H]3CC[C@@H](NC(=O)c4cc(C)ccc4O)CC3)c(=O)c3cc(F)cnc32)c1 [Example 45, methyl 3-[6-fluoro-3-{cis-4-[(2-hydroxy-5-methylbenzoyl)amino]cyclohexyl}-2,4-dioxo-3,4-dihydropyrido[2,3-d]pyrimidin-1(2H)-yl]benzoate]",< 16
15,"O=C([C@H](O)C1CCCCC1)N1CC[C@@H](n2c(=O)c3cc(F)cnc3n(-c3ccc(F)c(F)c3)c2=O)C1 [Example 81, 3-{(3R)-1-[(2R)-2-cyclohexyl-2-hydroxyacetyl]pyrrolidin-3-yl}-1-(3,4-difluorophenyl)-6-fluoropyrido[2,3-d]pyrimidine-2,4(1H,3H)-dione]",8.1
16,"O=C(CCc1cccc(O)c1)N[C@H]1CC[C@@H](n2c(=O)c3cc(F)cnc3n(-c3ccc(F)c(F)c3)c2=O)CC1 [Example 31, N-{cis-4-[1-(3,4-difluorophenyl)-6-fluoro-2,4-dioxo-1,4-dihydropyrido[2,3-d]pyrimidin-3(2H)-yl]cyclohexyl}-3-(3-hydroxyphenyl)propanamide]",1.5
17,"COC(=O)c1cccc(-n2c(=O)n([C@H]3CC[C@@H](NC(=O)[C@@H]4CCCN4C)CC3)c(=O)c3cc(F)cnc32)c1 [Example 49, Methyl 3-[6-fluoro-3-{cis-4-[(1-methyl-L-prolyl)amino]cyclohexyl}-2,4-dioxo-3,4-dihydropyrido[2,3-d]pyrimidin-1(2H)-yl]benzoate]",14.5
18,"O=C(CCN1CCOCC1)N[C@H]1CC[C@@H](n2c(=O)c3cc(F)cnc3n(-c3ccc(F)c(F)c3)c2=O)CC1 [Example 100, N-{cis-4-[1-(3,4-difluorophenyl)-6-fluoro-2,4-dioxo-1,4-dihydropyrido[2,3-d]pyrimidin-3(2H)-yl]cyclohexyl}-3-morpholin-4-ylpropanamide]",2.12
19,"CSc1cccc(-n2c(=O)n([C@H]3CC[C@@H](NC(=O)c4cc(C)ccc4O)CC3)c(=O)c3cc(F)cnc32)c1 [Example 35, N-{cis-4-[6-fluoro-1-[3-(methylthio)phenyl]-2,4-dioxo-1,4-dihydropyrido[2,3-d]pyrimidin-3(2H)-yl]cyclohexyl}-2-hydroxy-5-methylbenzamide]",1.4
20,"CS(=O)(=O)N[C@H]1CC[C@@H](n2c(=O)c3cc(F)cnc3n(-c3ccc(F)c(F)c3)c2=O)CC1 [Example 47, N-{cis-4-[1-(3,4-Difluorophenyl)-6-fluoro-2,4-dioxo-1,4-dihydropyrido[2,3-d]pyrimidin-3(2H)-yl]cyclohexyl}methanesulfonamide]",60.1
21,"COC(=O)c1cccc(-n2c(=O)n([C@H]3CC[C@@H](NC(=O)c4cn5ccccc5n4)CC3)c(=O)c3cc(F)cnc32)c1 [Example 69, methyl 3-[6-fluoro-3-{cis-4-[(imidazo[1,2-a]pyridin-2-ylcarbonyl)amino]cyclohexyl}-2,4-dioxo-3,4-dihydropyrido[2,3-d]pyrimidin-1(2H)-yl]benzoate]",1
22,"CSc1cccc(-n2c(=O)n([C@H]3CC[C@@H](NC(=O)c4ccco4)CC3)c(=O)c3cc(F)cnc32)c1 [Example 54, N-{cis-4-[6-fluoro-1-[3-(methylthio)phenyl]-2,4-dioxo-1,4-dihydropyrido[2,3-d]pyrimidin-3(2H)-yl]cyclohexyl}-2-furamide]",3.9
23,"O=C(N[C@H]1CC[C@@H](n2c(=O)c3cc(F)cnc3n(-c3ccc(F)c(F)c3)c2=O)CC1)c1ccc(Cl)cc1O [Example 18, 4-chloro-N-{cis-4-[1-(3,4-difluorophenyl)-6-fluoro-2,4-dioxo-1,4-dihydropyrido[2,3-d]pyrimidin-3(2H)-yl]cyclohexyl}-2-hydroxybenzamide]",2.7
24,"CSc1cccc(-n2c(=O)n([C@H]3CC[C@@H](NC(=O)[C@H](O)c4ccccc4)CC3)c(=O)c3cc(F)cnc32)c1 [Example 37, (2R)-N-{cis-4-[6-fluoro-1-[3-(methylthio)phenyl]-2,4-dioxo-1,4-dihydropyrido[2,3-d]pyrimidin-3(2H)-yl]cyclohexyl}-2-hydroxy-2-phenylacetamide]",0.5
25,"O=C(N[C@H]1CC[C@@H](n2c(=O)c3cc(F)cnc3n(-c3ccc(F)c(F)c3)c2=O)CC1)c1cc2ccccc2[nH]1 [Example 87, N-{cis-4-[1-(3,4-difluorophenyl)-6-fluoro-2,4-dioxo-1,4-dihydropyrido[2,3-d]pyrimidin-3(2H)-yl]cyclohexyl}-1H-indole-2-carboxamide]",0.885
26,"O=C(N[C@H]1CC[C@@H](n2c(=O)c3cc(F)cnc3n(-c3ccc(F)c(F)c3)c2=O)CC1)c1cc(CO)ccc1O [Example 1, N-{cis-4-[1-(3,4-difluorophenyl)-6-fluoro-2,4-dioxo-1,4-dihydropyrido[2,3-d]pyrimidin-3(2H)-yl]cyclohexyl}-2-hydroxy-5-(hydroxymethyl)benzamide]",4.9
27,"COC(=O)c1cccc(-n2c(=O)n([C@H]3CC[C@@H](NC(=O)C(C)(C)C)CC3)c(=O)c3cc(F)cnc32)c1 [Example 64, methyl 3-[3-{cis-4-[(2,2-dimethylpropanoyl)amino]cyclohexyl}-6-fluoro-2,4-dioxo-3,4-dihydropyrido[2,3-d]pyrimidin-1(2H)-yl]benzoate]",4.4
